Where two headings read alike, the source gives them in different places.
Assays:
[1] = rats; IPA supplementation; over 1 week; cited from earlier work
[2] = mice; IPA supplementation; in 2 weeks; cited from earlier work
[3] = target: T1, AhR (Canis lupus familiaris, UniProt A0A8I3RSX6); assay: AhR activation, in vitro luminescence assay in canine cell lines expressing AhR; assay type: cell-based; conditions: canine cell line expressing AhR; 200 μM; normalized to methylcholanthrene (FIG. 5)
T1 sequence (A0A8I3RSX6 1-853): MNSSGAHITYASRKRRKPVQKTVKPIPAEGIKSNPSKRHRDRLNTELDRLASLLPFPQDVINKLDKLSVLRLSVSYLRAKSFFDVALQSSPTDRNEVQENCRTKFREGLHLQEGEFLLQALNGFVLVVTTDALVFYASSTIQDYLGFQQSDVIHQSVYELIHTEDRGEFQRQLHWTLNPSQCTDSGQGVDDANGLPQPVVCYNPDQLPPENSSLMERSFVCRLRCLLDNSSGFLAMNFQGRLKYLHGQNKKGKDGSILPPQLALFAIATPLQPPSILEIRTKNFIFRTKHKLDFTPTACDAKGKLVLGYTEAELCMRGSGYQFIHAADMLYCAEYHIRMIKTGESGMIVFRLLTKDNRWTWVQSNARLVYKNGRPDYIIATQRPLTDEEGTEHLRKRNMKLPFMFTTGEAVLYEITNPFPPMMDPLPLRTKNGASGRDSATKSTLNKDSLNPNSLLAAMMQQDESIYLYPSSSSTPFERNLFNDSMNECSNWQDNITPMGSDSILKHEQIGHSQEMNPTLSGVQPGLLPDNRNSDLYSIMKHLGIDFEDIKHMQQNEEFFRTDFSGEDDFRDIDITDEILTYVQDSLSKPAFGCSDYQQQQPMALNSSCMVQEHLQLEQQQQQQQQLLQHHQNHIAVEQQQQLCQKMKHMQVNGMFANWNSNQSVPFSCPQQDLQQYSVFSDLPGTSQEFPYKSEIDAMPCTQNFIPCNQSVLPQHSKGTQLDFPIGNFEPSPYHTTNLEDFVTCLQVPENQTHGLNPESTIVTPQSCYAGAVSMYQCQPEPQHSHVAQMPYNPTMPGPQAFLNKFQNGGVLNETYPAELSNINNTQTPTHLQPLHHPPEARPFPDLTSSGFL
Procedure: (§1) The utility of ILA and IAld in multiple host was validated by an in vitro assay. Human or canine cell lines expressing AhR were exposed to ILA or IAld at 200 μM, and AhR activation was assayed using in vitro luminescence.

[4] = target: T2, AhR (Homo sapiens, UniProt P35869); assay: AhR activation, in vitro luminescence assay in human cell lines expressing AhR; assay type: cell-based; conditions: human cell line expressing AhR; 200 μM; normalized to methylcholanthrene (FIG. 5)
T2 sequence (P35869 11-848): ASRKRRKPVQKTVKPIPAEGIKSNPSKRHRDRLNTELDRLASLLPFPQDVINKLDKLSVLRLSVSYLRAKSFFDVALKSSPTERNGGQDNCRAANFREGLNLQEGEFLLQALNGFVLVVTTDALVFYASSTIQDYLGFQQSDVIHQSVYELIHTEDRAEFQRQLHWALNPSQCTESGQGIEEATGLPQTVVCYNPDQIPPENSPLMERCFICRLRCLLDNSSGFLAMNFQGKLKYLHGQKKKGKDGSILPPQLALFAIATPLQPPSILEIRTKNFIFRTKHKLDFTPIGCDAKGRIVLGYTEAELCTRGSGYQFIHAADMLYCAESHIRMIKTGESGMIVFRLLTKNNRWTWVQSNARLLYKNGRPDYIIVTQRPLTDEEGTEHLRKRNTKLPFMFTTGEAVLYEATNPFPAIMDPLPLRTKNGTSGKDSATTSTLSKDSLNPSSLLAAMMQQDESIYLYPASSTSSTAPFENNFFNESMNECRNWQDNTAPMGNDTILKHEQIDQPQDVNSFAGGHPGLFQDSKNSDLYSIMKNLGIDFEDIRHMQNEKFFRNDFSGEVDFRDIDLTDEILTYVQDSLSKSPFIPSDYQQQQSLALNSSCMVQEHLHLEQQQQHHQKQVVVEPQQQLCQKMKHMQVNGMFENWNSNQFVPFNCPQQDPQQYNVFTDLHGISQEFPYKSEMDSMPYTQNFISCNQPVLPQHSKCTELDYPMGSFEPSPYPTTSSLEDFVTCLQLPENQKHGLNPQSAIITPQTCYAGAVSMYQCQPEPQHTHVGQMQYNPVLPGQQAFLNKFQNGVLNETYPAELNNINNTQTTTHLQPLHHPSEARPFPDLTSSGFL
Procedure: as §1

Structure (SMILES)	reduction of weight gain [1] [%]	reduction of weight gain [2] [%]	AhR activation [3]	AhR activation [4]
O=C(O)CCc1c[nH]c2ccccc12 [IPA, indole-3-propionic acid]	~50	~60	–	–
O=Cc1c[nH]c2ccccc12 [IAld, indole-3-carboxaldehyde]	–	–	AhR activation was observed	AhR activation was observed
O=C(O)C(O)Cc1c[nH]c2ccccc12 (stereo not drawn) [ILA, indole-3-lactic acid]	–	–	AhR activation was observed	AhR activation was observed

— patent US20250268959A1, “COMPOSITIONS CONTAINING INDOLE-DERIVED METABOLITES AND METHODS OF USE THEREOF” (Imvela Corp., priority 2024, published 2025)
